Experimental findings from ChEMBL document CHEMBL1139733, “Aminopyridine carboxamides as c-Jun N-terminal kinase inhibitors: targeting the gatekeeper residue and beyond” (Bioorg Med Chem Lett, 2006) are described below.

Assay [1] has as its target Mitogen-activated protein kinase 8 (Homo sapiens, UniProt P45983). The assay can be described thus: Inhibition of JNK1 by ATF2 phosphorylation assay. The assay is classed as functional.
The target in assay [2] is Mitogen-activated protein kinase 9 (Homo sapiens, UniProt P45984). The assay can be described thus: Inhibition of JNK2 by ATF2 phosphorylation assay. The format is functional.
Sequence of Mitogen-activated protein kinase 9 (P45984 whole entry): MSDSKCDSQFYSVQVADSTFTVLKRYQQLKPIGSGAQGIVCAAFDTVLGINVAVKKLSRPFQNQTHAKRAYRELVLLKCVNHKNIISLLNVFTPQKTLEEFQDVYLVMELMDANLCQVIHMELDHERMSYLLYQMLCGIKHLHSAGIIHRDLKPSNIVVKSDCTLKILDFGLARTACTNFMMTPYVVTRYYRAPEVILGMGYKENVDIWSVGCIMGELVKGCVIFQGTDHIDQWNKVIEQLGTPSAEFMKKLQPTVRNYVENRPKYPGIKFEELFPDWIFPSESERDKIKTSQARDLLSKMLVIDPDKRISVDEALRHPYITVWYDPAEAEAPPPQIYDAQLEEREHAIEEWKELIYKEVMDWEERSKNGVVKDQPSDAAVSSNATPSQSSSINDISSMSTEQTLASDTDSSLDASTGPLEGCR
Assay [3] concerns the target c-Jun N-terminal kinase, JNK (Homo sapiens, UniProt P45983+P53779+P45984). The assay is described as follows: Inhibition of PcJun phosphorylation in HepG2 cells. The format is functional, cell-based.

Sequence of Mitogen-activated protein kinase 8 (P45983 whole entry): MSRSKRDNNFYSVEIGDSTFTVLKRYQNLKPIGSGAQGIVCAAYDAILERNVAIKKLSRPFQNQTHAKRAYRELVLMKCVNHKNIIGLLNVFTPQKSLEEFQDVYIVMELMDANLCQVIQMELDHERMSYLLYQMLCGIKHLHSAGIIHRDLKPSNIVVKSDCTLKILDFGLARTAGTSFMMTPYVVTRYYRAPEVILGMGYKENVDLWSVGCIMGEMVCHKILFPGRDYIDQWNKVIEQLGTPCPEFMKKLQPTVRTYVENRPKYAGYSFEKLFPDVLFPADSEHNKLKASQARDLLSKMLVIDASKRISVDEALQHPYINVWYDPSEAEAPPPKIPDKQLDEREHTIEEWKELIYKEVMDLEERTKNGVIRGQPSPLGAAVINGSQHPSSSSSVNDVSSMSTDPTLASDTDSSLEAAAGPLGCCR

As usually defined, the IC50 is the concentration that gives 50% inhibition. As for `CC(C)Oc1nc(C(=O)NCc2ccc(S(C)(=O)=O)cc2)cc(N)c1C#N`, the IC50 was 15 nM in assay [1], 38 nM in assay [2] and 250 nM in assay [3].

For `COCCNc1nc(C(=O)NCc2ccc(S(C)(=O)=O)cc2)cc(N)c1C#N`, the concentration for half-maximal inhibition (IC50) came out at 120 nM in assay [1], 210 nM in assay [2] and 5900 nM in assay [3].

On to `C[C@@H](CO)Nc1nc(C(=O)NCc2ccc(S(C)(=O)=O)cc2)cc(N)c1C#N`, for which the IC50 is 22 nM in assay [1], 30 nM in assay [2] and 2600 nM in assay [3].

As for `CC(C)Nc1nc(C(=O)NCc2ccc(S(C)(=O)=O)cc2)cc(N)c1C#N`, the IC50 in assay [1] came out at 67 nM; in assay [2] it was 84 nM; in assay [3] it was 490 nM.

As to `CS(=O)(=O)c1ccc(CNC(=O)c2cc(N)c(C#N)c(-c3cccc(S(C)(=O)=O)c3)n2)cc1`, the values for the concentration for half-maximal inhibition (IC50) in assay [1], in assay [2] and in assay [3] were 43 nM, 97 nM and 10500 nM, respectively.

Turning to `CCCNC(=O)c1c(N)cc(C(=O)NCc2ccc(S(C)(=O)=O)cc2)nc1OCC`, in assay [1], the half-maximal inhibitory concentration (IC50) stood at 5250 nM.

For the compound `CS(=O)(=O)c1ccc(CNC(=O)c2cc(N)c(C#N)c(CCC(=O)O)n2)cc1`, the concentration for half-maximal inhibition (IC50) in assay [1] came out at 1640 nM; in assay [2], 6920 nM.

For `CS(=O)(=O)c1ccc(CNC(=O)c2cc(N)c(C#N)c(-c3cccc(Cl)c3)n2)cc1`, the IC50 in assay [1] amounted to 1180 nM; in assay [2], 840 nM; in assay [3], 1200 nM.

Turning to `CS(=O)(=O)c1ccc(CNC(=O)c2cc(N)c(C#N)c(-c3ccoc3)n2)cc1`, the IC50 in assay [1] stood at 270 nM; in assay [2], 530 nM; in assay [3], 4300 nM.

As for `CS(=O)(=O)c1ccc(CNC(=O)c2cc(N)c(C#N)c(NCCCO)n2)cc1`, the IC50 in assay [1] turned out to be 54 nM; in assay [2], 180 nM; in assay [3], 8300 nM.

As for `CCOc1nc(C(=O)NCc2ccc(S(C)(=O)=O)cc2)cc(N)c1C#C/C=C/CO`, the 50% inhibitory concentration (IC50) in assay [1] is 1550 nM; in assay [2], 4320 nM; in assay [3] it was 5240 nM.

For `CCOc1nc(C(=O)NCc2ccc(S(C)(=O)=O)cc2)cc(N)c1C#CCCO`, the half-inhibitory concentration (IC50) in assay [1] was 2240 nM; in assay [2] it was 4610 nM; in assay [3], 7360 nM.

With `CC(C)COc1nc(C(=O)NCc2ccc(S(C)(=O)=O)cc2)cc(N)c1C#N`, the half-maximal inhibitory concentration (IC50) amounted to 88 nM in assay [1], 370 nM in assay [2] and 700 nM in assay [3].

On to `CS(=O)(=O)c1ccc(CNC(=O)c2cc(N)c(C#N)c(NCCO)n2)cc1`, for which the IC50 in assay [1] is 93 nM; in assay [2], 150 nM; in assay [3], above 10000 nM.

For the compound `C[C@H](CO)Nc1nc(C(=O)NCc2ccc(S(C)(=O)=O)cc2)cc(N)c1C#N`, the IC50 was 180 nM in assay [1], 320 nM in assay [2] and above 10000 nM in assay [3].

Regarding `CCOc1nc(C(=O)NCc2ccc(S(C)(=O)=O)cc2)cc(N)c1/C=C/C#N`, the 50% inhibitory concentration (IC50) amounted to 410 nM in assay [1], 1790 nM in assay [2] and 807 nM in assay [3].

As to `CS(=O)(=O)c1ccc(CNC(=O)c2cc(N)c(C#N)c(-c3cccc(O)c3)n2)cc1`, the values for the half-maximal inhibitory concentration (IC50) in assay [1], in assay [2] and in assay [3] were 200 nM, 240 nM and 9400 nM, respectively.

Compound `CS(=O)(=O)c1ccc(CNC(=O)c2cc(N)c(C#N)c(NCCN)n2)cc1` gave an IC50 in assay [1] of 1600 nM.

On to `CS(=O)(=O)c1ccc(CNC(=O)c2cc(N)c(C#N)c(/C=C/C(=O)O)n2)cc1`, for which the IC50 is 300 nM in assay [1], 430 nM in assay [2] and above 2500 nM in assay [3].

`C/C=C/c1nc(C(=O)NCc2ccc(S(C)(=O)=O)cc2)cc(N)c1C#N`: the IC50 was 48 nM in assay [1], 230 nM in assay [2] and 890 nM in assay [3].

On to `CC(=O)NCCNc1nc(C(=O)NCc2ccc(S(C)(=O)=O)cc2)cc(N)c1C#N`, for which the concentration for half-maximal inhibition (IC50) in assay [1] was 59 nM; in assay [2], 81 nM; in assay [3], above 10000 nM.

For `CS(=O)(=O)c1ccc(CNC(=O)c2cc(N)c(C#N)c(NC3CCCC3)n2)cc1`, the IC50 worked out at 96 nM in assay [1], 290 nM in assay [2] and 480 nM in assay [3].

As for `CS(=O)(=O)c1ccc(CNC(=O)c2cc(N)c(C#N)c(NCCNC(N)=O)n2)cc1`, the concentration for half-maximal inhibition (IC50) is 93 nM in assay [1] and above 10000 nM in assay [3].

For `CS(=O)(=O)c1ccc(CNC(=O)c2cc(N)c(C#N)c(-c3ccsc3)n2)cc1`, the IC50 in assay [1] turned out to be 81 nM; in assay [2] it was 390 nM; in assay [3], 610 nM.

With `CS(=O)(=O)c1ccc(CNC(=O)c2cc(N)c(C#N)c(NCc3ccccc3)n2)cc1`, the 50% inhibitory concentration (IC50) in assay [1] is 820 nM; in assay [2], 4700 nM.

Take `CS(=O)(=O)c1ccc(CNC(=O)c2cc(N)c(C#N)c(-c3cncnc3)n2)cc1`: the results for the IC50 in assay [1], in assay [2] and in assay [3] were 620 nM, 860 nM and above 10000 nM, respectively.

Turning to `COc1cccc(-c2nc(C(=O)NCc3ccc(S(C)(=O)=O)cc3)cc(N)c2C#N)c1`, the IC50 in assay [1] stood at 430 nM; in assay [2] it was 600 nM; in assay [3] it was 1800 nM.

On to `CC(C)[C@@H](CO)Nc1nc(C(=O)NCc2ccc(S(C)(=O)=O)cc2)cc(N)c1C#N`, for which the IC50 stood at 1500 nM in assay [1] and 1400 nM in assay [2].

Regarding `CS(=O)(=O)c1ccc(CNC(=O)c2cc(N)c(C#N)c(-c3ccsc3CNCc3ccccc3)n2)cc1`, the IC50 in assay [1] worked out at 1990 nM; in assay [3] it was 8010 nM.

For `CS(=O)(=O)c1ccc(CNC(=O)c2cc(N)c(C#N)c(NCCc3ccccc3)n2)cc1`, the IC50 in assay [1] turned out to be 260 nM; in assay [2] it was 1000 nM; in assay [3], 2700 nM.

With `CS(=O)(=O)c1ccc(CNC(=O)c2cc(N)c(C#N)c(OCC3CCCC3)n2)cc1`, the IC50 was found to be 390 nM in assay [1], 610 nM in assay [2] and 490 nM in assay [3].

As to `C#Cc1c(N)cc(C(=O)NCc2ccc(S(C)(=O)=O)cc2)nc1OCC`, the IC50 was determined as 350 nM in assay [1], 300 nM in assay [2] and 1890 nM in assay [3].

Turning to `CS(=O)(=O)c1ccc(CNC(=O)c2cc(N)c(C#N)c(NCCC(N)=O)n2)cc1`, the concentration for half-maximal inhibition (IC50) in assay [1] was 66 nM; in assay [2] it was 87 nM; in assay [3], above 10000 nM.

Consider `CS(=O)(=O)c1ccc(CNC(=O)c2cc(N)c(C#N)c(OCC3CC3)n2)cc1`, for which the half-maximal inhibitory concentration (IC50) in assay [1] is 23 nM; in assay [2] it was 47 nM; in assay [3], 560 nM.

For `CCOc1nc(C(=O)NCc2ccc(S(C)(=O)=O)cc2)cc(N)c1/C=C/c1ccccc1`, the concentration for half-maximal inhibition (IC50) in assay [1] stood at 2430 nM; in assay [2], 4130 nM; in assay [3] it was 6920 nM.

On to `COc1ccc(Oc2nc(C(=O)NCc3ccc(S(C)(=O)=O)cc3)cc(N)c2C#N)cc1`, for which the half-maximal inhibitory concentration (IC50) in assay [1] turned out to be 420 nM; in assay [2] it was 450 nM.

As for `CCOc1nc(C(=O)NCc2ccc(S(C)(=O)=O)cc2)cc(N)c1C#Cc1ccsc1`, the IC50 is 3430 nM in assay [1] and above 10000 nM in assay [2].

For `CCOc1nc(C(=O)NCc2ccc(S(C)(=O)=O)cc2)cc(N)c1/C=C/C(C)(C)C`, the results for the IC50 in assay [1], in assay [2] and in assay [3] were 2930 nM, 4160 nM and above 10000 nM, respectively.

`CS(=O)(=O)c1ccc(CNC(=O)c2cc(N)c(C#N)c(NC3CCC3)n2)cc1`: the IC50 is 85 nM in assay [1], 160 nM in assay [2] and 620 nM in assay [3].

Consider `CC(C)NC(=O)c1nc(C(=O)NCc2ccc(S(C)(=O)=O)cc2)cc(N)c1C#N`, for which the IC50 in assay [1] is 430 nM; in assay [2], 120 nM; in assay [3] it was 2900 nM.

With `CCCCC#Cc1c(N)cc(C(=O)NCc2ccc(S(C)(=O)=O)cc2)nc1OCC`, the IC50 in assay [1] was above 10000 nM.

For the compound `CS(=O)(=O)c1ccc(CNC(=O)c2cc(N)c(C#N)c(-c3ccsc3CO)n2)cc1`, the IC50 in assay [1] came out at 570 nM; in assay [2], 680 nM; in assay [3], 10800 nM.

For `CCOc1nc(C(=O)NCc2ccc(S(C)(=O)=O)cc2)cc(N)c1C#CCO`, the IC50 in assay [1] was found to be 1090 nM; in assay [3], 5700 nM.

Consider `CS(=O)(=O)c1ccc(CNC(=O)c2cc(N)c(C#N)c(/C=C/CCO)n2)cc1`, for which the 50% inhibitory concentration (IC50) in assay [1] was 170 nM; in assay [2], 240 nM; in assay [3], 5300 nM.

With `CS(=O)(=O)c1ccc(CNC(=O)c2cc(N)c(C#N)c(-c3cccnc3)n2)cc1`, the results for the IC50 in assay [1], in assay [2] and in assay [3] were 320 nM, 340 nM and 7300 nM, respectively.

Regarding `CN(C)CCNc1nc(C(=O)NCc2ccc(S(C)(=O)=O)cc2)cc(N)c1C#N`, the half-inhibitory concentration (IC50) in assay [1] turned out to be 7300 nM; in assay [2], 9200 nM.

`CCOc1nc(C(=O)NCc2ccc(S(C)(=O)=O)cc2)cc(N)c1C(N)=O`: the concentration for half-maximal inhibition (IC50) was determined as 318 nM in assay [1], 969 nM in assay [2] and 7540 nM in assay [3].

As to `C/C=C\c1nc(C(=O)NCc2ccc(S(C)(=O)=O)cc2)cc(N)c1C#N`, the IC50 in assay [1] was 150 nM; in assay [2], 260 nM; in assay [3], 5500 nM.

`CS(=O)(=O)c1ccc(CNC(=O)c2cc(N)c(C#N)c(-c3ccc(C(=O)O)s3)n2)cc1`: the IC50 in assay [1] is 250 nM; in assay [2] it was 160 nM; in assay [3], above 10000 nM.

With `C#C/C=C/c1c(N)cc(C(=O)NCc2ccc(S(C)(=O)=O)cc2)nc1OCC`, the IC50 was 79 nM in assay [1], 300 nM in assay [2] and 1400 nM in assay [3].

As to `CS(=O)(=O)c1ccc(CNC(=O)c2cc(N)c(C#N)c(/C=C/c3ccccc3)n2)cc1`, the IC50 is 1450 nM in assay [1], 1290 nM in assay [2] and 350 nM in assay [3].

`CS(=O)(=O)c1ccc(CNC(=O)c2cc(N)c(C#N)c(NC3CC3)n2)cc1`: the IC50 in assay [1] worked out at 32 nM; in assay [2], 69 nM; in assay [3], 1200 nM.

As to `CS(=O)(=O)c1ccc(CNC(=O)c2cc(N)c(C#N)c(NC(CO)CO)n2)cc1`, the IC50 in assay [1] was 76 nM; in assay [2], 100 nM; in assay [3], above 10000 nM.

As for `CS(=O)(=O)c1ccc(CNC(=O)c2cc(N)c(C#N)c(-c3ccncc3)n2)cc1`, the half-inhibitory concentration (IC50) in assay [1] came out at 530 nM; in assay [2] it was 660 nM.
